“And” between values parts separate entries of the source, which are not always exact repeats. Equal entries are not always repeated.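 Following 48 hours of exposure in 96-well plates, responses at five concentrations were used to interpolate endpoints linearly. The concentration for 50% growth inhibition is given as GI50. TGI is the concentration that stops growth completely.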
Assays:
Assay in all cases: inhibition of tumour cell growth, NCI panel, 48 h
[1] = system: OVCAR-8 ovarian
[2] = system: SF-295 CNS
[3] = system: HCT-15 colon
[4] = system: NCI-H460 lung
[5] = system: SNB-75 CNS
[6] = system: COLO 205 colon
[7] = system: HOP-62 NSCLC
[8] = system: PC-3 prostate
[9] = system: RPMI-8226 leukemia
[10] = system: A549 NSCLC
[11] = system: MCF7 breast
[12] = system: HL-60(TB) leukemia
[13] = system: NCI-H23 lung
[14] = system: CCRF-CEM leukemia
[15] = system: T-47D breast
[16] = system: HCT-116 colon
[17] = system: OVCAR-5 ovarian
[18] = system: SF-268 CNS
[19] = system: SK-MEL-5 melanoma
[20] = system: OVCAR-4 ovarian
[21] = system: ACHN renal
[22] = system: SK-MEL-2 melanoma
[23] = system: CAKI-1 renal
[24] = system: NCI-H226 lung
[25] = system: HT29 colon
[26] = system: MDA-MB-435
[27] = system: HS 578T breast
[28] = system: HCC-2998 colon
[29] = system: TK-10 renal
[30] = system: SK-OV-3 ovarian
[31] = system: A498 renal
[32] = system: SK-MEL-28 melanoma
[33] = system: MALME-3M melanoma
[34] = system: UACC-62 melanoma
[35] = system: SF-539 CNS
[36] = system: SN12C renal
[37] = system: K-562 leukemia
[38] = system: LOX IMVI melanoma
[39] = system: MDA-MB-231 breast
[40] = system: IGROV1 ovarian
[41] = system: SNB-19 CNS
[42] = system: NCI-H522 lung
[43] = system: HOP-92 NSCLC
[44] = system: 786-0 renal
[45] = system: BT-549 breast
[46] = system: MOLT-4 leukemia
[47] = system: OVCAR-3 ovarian
[48] = system: SR leukemia
[49] = system: KM12 colon
[50] = system: UO-31 renal
[51] = system: NCI/ADR-RES ovarian
[52] = system: SW-620 colon
[53] = system: EKVX NSCLC
[54] = system: M14 melanoma
[55] = system: DU-145 prostate
[56] = system: UACC-257 melanoma
[57] = system: U251 CNS

## CC(=O)Oc1ccc(C2(c3ccc(OC(C)=O)cc3)C(=O)Nc3ccccc32)cc1
[1]
  GI50: 0.292 µM and 0.408 µM
  TGI: > 100 µM
[2]
  GI50: 23.5 µM and 38.3 µM
  TGI: > 100 µM
[3]
  GI50: 20.5 µM and 25.8 µM
  TGI: > 100 µM
[4]
  GI50: 36.6 µM and 46.3 µM
  TGI: > 100 µM
[5]
  GI50: 17.2 µM and 23.8 µM
  TGI: 59 µM and > 79.9 µM
[6]
  GI50: 0.0741 µM and 0.155 µM
  TGI: 11.9 µM and 29.8 µM
[7]
  GI50: 34.7 µM and 35.1 µM
  TGI: > 100 µM
[8]
  GI50: 5.19 µM and 14.3 µM
  TGI: > 100 µM
[9]
  GI50: 20.5 µM and 17.6 µM
  TGI: > 93.2 µM
[10]
  GI50: 33.8 µM and 42.9 µM
  TGI: > 100 µM
[11]
  GI50: 0.229 µM and 0.278 µM
  TGI: > 49.3 µM
[12]
  GI50: 15.1 µM and 30.9 µM
  TGI: > 71.9 µM
[13]
  GI50: 9.3 µM and 19.3 µM
  TGI: > 100 µM
[14]
  GI50: 25.7 µM and 28.6 µM
  TGI: > 100 µM and 99.3 µM
[15]
  GI50: 0.031 µM and 0.0327 µM
  TGI: 0.112 µM and 0.129 µM
[16]
  GI50: 34.1 µM and 25.8 µM
  TGI: > 100 µM
[17]
  GI50: > 70.8 µM
  TGI: > 100 µM
[18]
  GI50: 38.5 µM and 32.8 µM
  TGI: > 100 µM
[19]
  GI50: 24.6 µM and 36.1 µM
  TGI: > 100 µM
[20]
  GI50: 0.0347 µM and 0.0389 µM
  TGI: 1.42 µM
[21]
  GI50: 18.9 µM and 30.6 µM
  TGI: > 100 µM
[22]
  GI50: 30.4 µM and 52.8 µM
  TGI: 96.9 µM and > 100 µM
[23]
  GI50: 31.4 µM and 31.8 µM
  TGI: > 100 µM
[24]
  GI50: > 100 µM
  TGI: > 100 µM
[25]
  GI50: 30.4 µM and 45.3 µM
  TGI: > 100 µM
[26]
  GI50: 30.6 µM and 29.8 µM
  TGI: > 100 µM
[27]
  GI50: 0.0651 µM and 0.153 µM
  TGI: 0.484 µM and 0.7 µM
[28]
  GI50: 29.7 µM and 23.1 µM
  TGI: > 100 µM
[29]
  GI50: 3.14 µM and 17.6 µM
  TGI: > 100 µM
[30]
  GI50: 31.8 µM and 58.9 µM
  TGI: > 100 µM
[31]
  GI50: 24.6 µM and 26.8 µM
  TGI: > 76.1 µM and 89.8 µM
[32]
  GI50: 35.1 µM and 34.2 µM
  TGI: > 100 µM
[33]
  GI50: 64.5 µM and > 100 µM
  TGI: > 100 µM
[34]
  GI50: 34.8 µM and 43.5 µM
  TGI: > 100 µM
[35]
  GI50: 26.3 µM and 50.2 µM
  TGI: > 100 µM
[36]
  GI50: 0.202 µM and 0.283 µM
  TGI: > 68.3 µM
[37]
  GI50: 17.3 µM and 42.2 µM
  TGI: > 87.3 µM
[38]
  GI50: 16.8 µM and 13.8 µM
  TGI: > 100 µM
[39]
  GI50: 25.6 µM and 37.8 µM
  TGI: > 100 µM
[40]
  GI50: 11.2 µM and 16.8 µM
  TGI: 81.3 µM and > 100 µM
[41]
  GI50: 42.9 µM and > 61.1 µM
  TGI: > 100 µM
[42]
  GI50: 3.12 µM and 4.56 µM
  TGI: > 100 µM
[43]
  GI50: 11.8 µM and 16.2 µM
  TGI: > 79.6 µM
[44]
  GI50: 42.6 µM and 46.6 µM
  TGI: > 100 µM
[45]
  GI50: 0.064 µM and 0.158 µM
  TGI: 0.524 µM and 0.733 µM
[46]
  GI50: 16.3 µM and 28.3 µM
  TGI: > 100 µM
[47]
  GI50: 0.081 µM and 0.131 µM
  TGI: > 35.8 µM and 26 µM
[48]
  GI50: 25.1 µM and 24.2 µM
  TGI: > 100 µM
[49]
  GI50: 12.7 µM and 12.6 µM
  TGI: > 62.7 µM and 51.7 µM
[50]
  GI50: 24 µM and 27.5 µM
  TGI: > 100 µM
[51]
  GI50: 1.16 µM and 1.8 µM
  TGI: > 100 µM
[52]
  GI50: 36.7 µM and 31.5 µM
  TGI: > 100 µM
[53]
  GI50: 8.49 µM and 22.4 µM
  TGI: > 100 µM
[54]
  GI50: 34.4 µM and 38.2 µM
  TGI: > 100 µM
[55]
  GI50: 24.4 µM and 28.7 µM
  TGI: > 70.4 µM and 95.3 µM
[56]
  GI50: 24.1 µM and 28.2 µM
  TGI: 79.4 µM and > 100 µM
[57]
  GI50: 33.6 µM and 41.4 µM
  TGI: > 100 µM

Source: PubChem BioAssay (NCI)
